In one series the target is T1, human V2 receptor (Homo sapiens, UniProt P30518).
T1 construct: expressed in transfected cells; host or cells: CHO cells
As to the kind of experiment: V2R agonist activity, cAMP production by HTRF, stably transfected CHO cells. The class given is cell-based. The settings on record: HTRF detection, read-out: hV2R, EC50. As to the method: V2R: Evaluation of the agonist activity of compounds at the human V2 receptor expressed in stably transfected CHO cells was conducted by measuring their effects on cAMP production using the HTRF detection method ([Cotte et al., 1998]).
In general terms: Changes in cAMP serve as a functional read-out for many G protein-coupled receptors.

The nature of series [1]: Dose escalation: kaolin intake (pica, nausea/visceral malaise). The class given is in vivo, male DIO Sprague Dawley rats. As to the method: (§1) Sprague Dawley rats (male, ∼4 weeks of age, 51–75 g body weight) were switched from standard chow to a high fat diet (Research Diets, Diet # D12492, 60, 20, 20%kcal from fat, protein, and carbohydrate, respectively, 5.21 kcal/g; stored at −20°C). The rats were maintained on this diet for approximately 15 weeks prior to the start of experiments to develop a diet-induced overweight (DIO) model. Animals were individually housed on a 12 h/12 h light/dark cycle (lights on at 04:00 h) in a temperature (23°C) and humidity (mean 50%, SD 10%) controlled room. All body weight measurements were made just prior to the start of the dark cycle.
Sequential rounds of a 3-day baseline phase (vehicle treated), a 3-day treatment phase, and a washout phase (2–5 days as necessary) were tested. […] High fat diet was accessible to the rats from all but the last 6 h of the light cycle and water was provided ad libitum. This daily period of food restriction was used to prevent incidental feeding in the event animals were disturbed from their sleep by noise from surrounding rooms. To assess a potential pica response (nausea/visceral malaise) in animals, powdered kaolin (Sigma-Aldrich, K1512) was made available on drug treatment days with a restriction period similar to the high fat diet. Prior to the first experiment, rats were provided access to kaolin for 2 days so that they could familiarize themselves with it prior to start of testing. Food and kaolin intake were continuously recorded using AccuScan DietMax (currently OmniTech Electronics, Inc., Diet System) cages. The high fat diet was compressed in the food tray to form a solid block of food. This allows for more accurate meal size measurements by preventing the animals from removing entire pellets at time. All food and kaolin intake data were binned into 15-min intervals for analysis and the start of the 24-h food intake period aligned to the lights turning off in the animal room. Body weight was recorded, and treatment injections were administered just prior to the start of the dark cycle.

A further series can be described thus: Toxicity / mortality. The class given is in vivo.
The nature of series [2]: Long-term (28-day) drug intervention: body weight. The following applies: treatment days 9-28. The class given is in vivo, male DIO Sprague Dawley rats. As for the experimental part:
as §1
(§2) Male DIO Sprague Dawley rats (n = 24) were generated as outlined above and were 644.5 g (50 g) at the start of drug treatment. The animals were divided into three treatment groups (n = 8 each) balanced for body weight, body weight gain during baseline, food intake, and Lee Index [body weight^(1/3)/snout to anus length (mm)] ([Lee, 1929]; [Simson and Gold, 1982]) as an indicator of adiposity (Figure 2). In a subset of the animals (n = 5 per group, balanced for prior mentioned criteria), Mini-Mitter transponders (PDT-4000 E-Mitter, Respironics Inc.) were implanted posterior to the left scapula at least 9 days prior to start of baseline measures to ensure sufficient recovery time. Body temperature and gross motor activity were continuously recorded via these transponders. […] High fat diet and water were provided ad libitum and intake was recorded with daily hopper and water bottle weighs at time of body weight assessment just prior to drug administration. Blood samples were taken at start of intervention by tail vein bleeding and via cardiac puncture under an isoflurane induced surgical plane of anesthesia at euthanasia. Animals were euthanized on treatment day 29, 4 h after receiving a dose of their assigned treatment, via decapitation under isoflurane anesthesia immediately following blood draw. Body composition was assessed on carcasses.
From treatment day 8 on the doses were maintained to assess long-term efficacy at a therapeutically meaningful dose.

A short description of series [3]: Long-term: gross motor activity and body temperature (Mini-Mitter transponders). The class given is in vivo, male DIO Sprague Dawley rats. The following applies: 28-day study, n = 5 per group; first 12 days analysed.
Description: as §2
For comparisons of mean longitudinal changes in body temperature and activity, only the first 12 days of treatment, divided into three 4-day phases, were included in the analysis. These 4-day phases allowed for analyses to consider the ASK1476 dose titration.

Series [4] in a line: Long-term: hormone and metabolic blood parameters. The class given is in vivo, male DIO Sprague Dawley rats.
Description: as §2, with “Animals were euthanized on treatment day 29, 4 h after receiving a dose of their assigned treatment, via decapitation under isoflurane anesthesia immediately following blood draw.” left out
Commercially available enzyme-linked immunosorbent assays (ELISA) were used for quantitative assessment of leptin (MilliporeSigma, Burlington, MA) and insulin (MilliporeSigma, Burlington, MA); all with intra-assay CV < 4%. […]

For series [5] the following is noted: ref Modi et al., 2016, cited from earlier work. The source says: This property allows for reduction of the free fraction of ASK1476 available for enzymatic degradation. The pharmacokinetics study protocol for ASK1476 in mice and rats was described before ([Modi et al., 2016]).
For series [6] the following is noted: sc and iv, rodents; ref Modi et al., 2016; cited from earlier work.

The values that follow come from PMC8502973 (Frontiers in Physiology, 2021).

Entries after “also recorded” stand apart in the source; their conditions may differ. Where two headings read alike, the source gives them in different places. Positions of bridges follow the written chain, without caps; N, C: chain ends. Residues, ends and D or L forms follow the SMILES beside them. Groups on a side chain read outwards from the residue. *: point of attachment. PEG8 = NCCOCCOCCOCCOCCOCCOCCOCCOCCC(=O)O; Palmitoyl = CCCCCCCCCCCCCCCC(=O)* Some results are limits rather than exact numbers.

T1 sequence (P30518 whole entry): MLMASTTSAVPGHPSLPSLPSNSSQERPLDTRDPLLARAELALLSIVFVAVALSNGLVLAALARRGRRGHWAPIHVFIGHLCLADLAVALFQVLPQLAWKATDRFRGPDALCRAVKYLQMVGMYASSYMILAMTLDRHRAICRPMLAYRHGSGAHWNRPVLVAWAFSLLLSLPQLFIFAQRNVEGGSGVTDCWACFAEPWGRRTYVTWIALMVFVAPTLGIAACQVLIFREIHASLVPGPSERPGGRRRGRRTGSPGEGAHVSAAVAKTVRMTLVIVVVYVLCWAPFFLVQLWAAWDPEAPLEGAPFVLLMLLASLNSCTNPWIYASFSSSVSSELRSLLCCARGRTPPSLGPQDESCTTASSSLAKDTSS

Regarding `CCCCCCCCCCCCCCCC(=O)NCCOCCOCCOCCOCCOCCOCCOCCOCCC(=O)NCCCC[C@H](NC(=O)CNC(=O)[C@@H]1CSSC[C@H](N)C(=O)N[C@@H](Cc2ccc(O)cc2)C(=O)N[C@@H]([C@@H](C)CC)C(=O)N[C@@H](CCC(N)=O)C(=O)N[C@@H](CC(N)=O)C(=O)N1)C(=O)NCC(N)=O` [ASK1476] (H-CYIQNCGK([PEG8-Palmitoyl])G-NH2; disulfide 1-6), the EC50 at human V2 receptor came out at 0.36 nM. In series [1] (ASK1476 6, 15, 30, 60, 120 and 300 nmol/kg), the “relationship between kaolin consumption and baseline normalized food intake” value was “no significant association”. Also, in series [1] (ASK1476 dosing spectrum), the “visceral malaise signal (notably high kaolin intake in a few animals)” value is “may result in visceral malaise in a subset of animals”. The “kaolin intake of several animals at higher doses” value in series [1] (ASK1476 ≥ 30 nmol/kg/d, several animals, not seen with OXT) was more than 4 g/day. Further, in series [1] (increasing ASK1476 doses, not significant), the “kaolin intake, trend with dose” value was “increasing trend”. Further, the “kaolin intake at low doses” value in series [1] (low doses, sc once daily) is “below 4 g/d”. In series [1] (sc once daily, ASK1476 6-300 nmol/kg F(1.80, 12.59) = 2.26, p = 0.148, OXT 20-1200 nmol/kg F(1.51, 10.52) = 1.73, p = 0.223), the “kaolin intake, effect of treatment” value is “no significant effect of treatment”. For the same compound, the death result in “Toxicity / mortality” (150 nmol/kg intraperitoneal, unpublished dosing experiment) was “death of a rat”. Moreover, the death result in “Toxicity / mortality” (300 nmol/kg daily sc, after third dose, cause of death not established) is “one rat was found dead”. Besides, the “weight stability during final 20 days” value in series [2] is listed as “remained weight stable”. Further, the “locomotor activity or body temperature” value in series [3] is recorded as “no effects were detected on locomotor activity or body temperature; also recorded: did not find any evidence”. In series [4] (ASK1476, 95% CI −2.1 to −13.2, p = 0.006), the “serum ALT, difference vs vehicle” value is given as −7.6 U/L. In addition, the “ALT, post-treatment” value in series [4] (after 28-day Tx, serum, n = 8, Mean ± SD, ASK1476 ** p < 0.01 vs vehicle, ANOVA p 0.009) was 0.440.06** μmol/(sL). For the same compound, in series [5] (iv, rats, compared to OXT), the “half-life vs OXT” value is given as “extended half-life”, the “plasma clearance vs OXT” value is given as “reduced plasma clearance” and the “steady-state volume of distribution vs OXT” value was “increased steady-state volume of distribution”. Also, in series [5] (sc, depot formulation), the “brain to plasma concentration ratio (distribution)” value is “almost exclusive compartmentalization of the molecule to plasma”, the “concentrations in the central compartments” value was “only minimal concentrations detectable” and the plasma exposure result is on record as “prolonged exposure in the plasma”. Further, the “total maximal plasma concentration (Cmax)” value in series [5] (sc, mice, at 2 h post-dose) is “improved total maximal plasma concentration (Cmax)”. Moreover, the half-life result in series [5] (sc, mice) is “extended half-life”. Further, in series [6], the “half-life vs OXT” value is listed as “increased half-life” and the “plasma protein binding vs OXT” value is given as “increased plasma protein binding”.

The term EC50 denotes the concentration needed to bring the measured effect to its halfway point.
